Data on 2 sequences can be found in patent publication US10844102B2, “Peptides, compositions, and methods for stimulating subcutaneous adipogenesis” (The Regents of the University of California, priority 2014, dated 2020).

Where two headings read alike, the source gives them in different places.

Test [1] deals with dermis of aged rats. Briefly: Rat dermal skin model of adipogenesis (injection into the dermis of aged rats). In kind it is in vivo. The note with it: for adipogenic effects in rat skin: injected into the dermis of aged rats / rat skin.
In test [2] the test system is adipogenesis. Briefly: Adipogenic activity of peptides and peptide fragments, assay not specified. The test is classed as cell-based. As for the experimental part:
In the second approach, a series of truncations and alanine mutagenesis on peptide B were performed in order to identify the smallest active sequence. Fragments of peptide B were prepared and assayed for adipogenesis. First, fragments corresponding to the two halves of peptide B were prepared (KLKDENS (SEQ ID NO: 8) and SQLKSEVSK (SEQ ID NO: 13)).

Test [3] has as its system nude guinea pig. Description: Nude guinea pig model of adipogenesis. The note with it: in vivo.
The subject of test [4] is bone marrow mesenchymal stem cells. Briefly: Adipogenesis in mesenchymal stem cells or papillary fibroblasts, replacement of insulin. In kind it is cell-based. The note with it: depending upon the screening assay used. The procedure: For example, in bone marrow mesenchymal stem cells, a maximum adipogenic effect was obtained at 1-5 μg of peptide B (SEQ ID NO: 2), depending upon the screening assay used.

The test system of test [5] is mammary fat pads of aged female rats. Briefly: In vivo adipogenesis in mammary fat pads of aged female rats (microCT). More on the design: species or system rat. The note with it: eight-month-old female rats, 100 μg peptide in 100 μl collagen gel, 7 days, versus collagen only. The procedure: Peptides were also tested for their ability to stimulate adipogenesis in mammary fat pads of aged (8 month old) female rats in vivo. Mammary fat pads are rich in adipocyte progenitor cells.
Eight-month-old female Sprague Dawley rats (retired breeders) were injected with 100 μl collagen gel (Vitrogen) containing 100 μg peptide into the fourth right mammary fat pad, as depicted in FIG. 10. […] The collagen and peptides were injected at the top of the ROI nearest the nipple. The collagen and peptide diffuse into the fat pad following injection and active peptides target RHAMM-positive progenitor cells present in the fat pad. Collagen alone was injected into the fourth left mammary fat pad as a negative control.
Following injection of the collagen and peptide or collagen alone, animals were maintained on rat chow and water for 7 days and then euthanized. Micro-computed tomography (microCT) imaging of the […] was performed on animals using a Locus Ultra scanner (GE Healthcare, London, ON, Canada). The animals were imaged ex vivo with an X-ray tube voltage of 80 kV and a tube current of 55 mA. Nine hundred projections of data were acquired at an angular increment of 0.4 degrees around the rat in an exposure time of 16 ms. The data were then reconstructed into a 3D volume image with a voxel size of 154 μm. The subcutaneous mammary fat measured in 10×5×3 mm rectangular area (the region of interest (ROI)) below the nipple, avoiding measurement of underlying visceral fat (see the region labeled “fat pad” in FIG. 11). The amount of fat in the ROI was calculated as mass (mg) per ROI.

Test [6] has as its system adipogenesis. The following applies: earlier reports, WO 2014/082042 and background; cited from earlier work.
In test [7] the test system is pre-adipocyte stem cells. Description: Adipogenic effects in pre-adipocyte stem cells in culture. The test is classed as cell-based.
Test [8] in a line: Hyaluronan binding (random phage library screen). The note with it: unbiased screen of 15-mer random phage libraries. As for the experimental part: Two approaches were used to identify additional adipogenic peptides and to identify the key adipogenic sequences. […] Thus, in the first approach, an unbiased screen was performed to identify hyaluronan-binding peptides using 15-mer random phage libraries. Peptide sequences identified in this screen were sorted for: (a) their alignment to the HA binding region of RHAMM, and (b) their lack of alignment to the HA binding region of CD44.

The test system of test [9] is adipogenesis in vivo. Description: Adipogenesis in vivo, model not specified.
For test [10] the following is noted: earlier reports, background and U.S. Pat. No. 6,271,344; cited from earlier work.

“KLKDENSQLKSEVSK (listed as Homo sapiens) [peptide B]”: the fat accumulation result in test [1] (25-50 μg of peptide per injection site, rat dermal skin model) is reported as “induced significant fat accumulation”. The “adipogenic effects in rat skin” value in test [1] was “adipogenic effects”. Moreover, the values for the adipogenic activity entry in test [2] (assay not specified) and in test [6] were “adipogenic activity” and “strongly adipogenic”, respectively. In [3], the “promoting adipogenesis in a nude guinea pig model” value is “effective in promoting adipogenesis”. Also, in test [4], the “amount of peptide giving a maximum adipogenic effect” value was 1 to 5 µg. Besides, in test [5], the “adipogenesis in vivo in mammary fat pads” value is on record as “mammary fat pad enlargement”. In addition, in [7], the “adipogenic effects in pre-adipocyte stem cells in culture” value is recorded as “adipogenic effects”.
Take STMMSRSHKTRSHHV [peptide P15-1]: the “binding to hyaluronan (HA)” value in [8] is “hyaluronan binding peptide”; in [10], “bind to hyaluronan”. Further, in test [1], the “adipogenic effects in rat skin” value is recorded as “adipogenic effects”. For the same sequence, in [2] (tissue culture), the “adipogenesis in tissue culture” value is given as “promotes adipogenesis”. Moreover, in test [9], the adipogenesis in vivo entry is on record as “promotes adipogenesis”. Moreover, the adipogenic activity result in test [6] is recorded as “is adipogenic”. Also, the “adipogenic effects in pre-adipocyte stem cells in culture” value in test [7] is “adipogenic effects”.
